Experimental data as given in patent US20240139280A1, “USE OF HIF-1-ALPHA INHIBITORS IN CANCER IMMUNOTHERAPY” (ONCOC4, INC., priority 2021, published 2024).

What was measured:
[1] = Tolerability and LD50 of intravenous echinomycin in mice; settings: mouse, in vivo
[2] = tested on: leukemia stem cells; settings: Wang et al., 2011; cited from earlier work
[3] = tested on: E0771 tumor microenvironment; assay: Flow cytometry of dissociated E0771 tumors (tumor cells, myeloid cells, TILs); assay type: in vivo, C57BL/6 mice
Experimental: FIGS. 6A-D. E0771 cells (0.5×10^6) were orthotopically transplanted into C57BL/6 mice (day 0). The mice received treatment with vehicle, echinomycin (LEM, 0.25 mg/kg/dose), anti-CTLA-4 mAb (9D9, 0.2 mg/mouse/injection), or their combination on days 6, 8, 10, and 12, and were euthanized on day 14. The tumors were dissociated and analyzed by flow cytometry to quantitate PD-L1 expression on tumor cells (gated on Singlets/Live_CD45^−) (FIG. 6A), M-MDSCs (gated on Singlets/Live_CD45^+/CD11b^+CD11c^−/Ly6ChighLy6G^−) (FIG. 6B), PMN-MDSCs (gated on Singlets/Live_CD45^+/CD11b^+CD11c^−/Ly6CInt.Ly6G^+) (FIG. 6C), or CD11c^+TAMs (gated on Singlets/Live_CD45^+/CD11b^+CD11c^+) (FIG. 6D). Upper panels show representative histograms of PD-L1 staining and lower panels show aggregate data from individual mice, pooled from three independent experiments (n=5 mice/group/experiment). Data shown are mean±SEM of PD-L1 MFI. Statistics were determined by one-way ANOVA with Sidak's multiple comparisons test (FIG. 6A), or by two-tailed unpaired t-tests (FIGS. 6B-D). FIGS. 6E-G. Echinomycin treatment reprograms the TME. Dissociated E0771 tumors were obtained from C57BL/6 mice treated with different therapies (n=5 mice/group), as described in FIGS. 6A-D. Single cell suspension were cultured for 4 hours with PMA+ionomycin+Golgi stop, surface stained, and then intracellular stained for IFNγ (for quantitation of Th1 and Tc1 cells) or surface stained for PD-L1. FIG. 6E. IFNγ expression in CD8+tumor-infiltrating lymphocytes (TILs) (gated on Singlets/Live_CD45^+/CD3^+/CD8^+CD4^−). […] FIG. 6F. IFNγ expression in the CD4^+ TILs (gated on Singlets/Live_CD45^+/CD3^+/CD8^−CD4^+). As in FIG. 6E, except that CD4 TIL were analyzed.
FIG. 6G. MHCII expression on CD11c^+ TAMs (gated on Singlets/Live_CD45^+/CD11b^+CD11c^+).
FIGS. 9A-H. C57BL/6 mice received E0771 cells (0.5×10^6/mouse) on day 0 followed by treatment with vehicle, echinomycin (LEM, 0.25 mg/kg/dose), anti-CTLA-4 (9D9, 0.2 mg/mouse/dose), or 9D9+LEM on days 6, 8, and 10. On day 14, tumors were analyzed by flow cytometry. […] Data are presented as the ±SEM of each group (n=5/group), analyzed by unpaired two-tailed Student's t-test and are representative of two experiments. FIGS. 9A-B. Frequencies of TILs expressing PD-1. FIGS. 9C-D. Frequencies of annexin V^+ CD8 or CD4 TILs. FIGS. 9E-F. Frequencies of CD8 TILs expressing granzyme B or perforin. FIGS. 9G-H. Granzyme B and perforin expression in CD4 TILs. FIG. 9I. Effect of depletion of CD4, CD8, or NK cells on tumor growth inhibition by 9D9+LEM in syngeneic E0771 model. C57BL/6 mice received E0771 cells (0.5×10^6/mouse) on day 0. On day 5, the mice were randomized to receive depletory antibodies (500 μg of anti-CD4 (GK1.5), anti-CD8 (YTS169.4), anti-NK1.1 (PK136), or isotype ctrl). All groups received 9D9 (200 ug) on day 6, and LEM (250 ug/kg) on days 6, 8, and 10. Mice received supplemental dose of depletory antibodies (200 μg) on days 8 and 10. The mean±SEM tumor volumes are plotted on the y axes for each group (n=5/group) and analyzed by two-way ANOVA. Representative data shown for one of two experiments.

[4] = with or without anti-CTLA-4 therapy

## CSC1SC[C@H]2C(=O)N(C)[C@@H](C(C)C)C(=O)OC[C@@H](NC(=O)c3cnc4ccccc4n3)C(=O)N[C@@H](C)C(=O)N(C)[C@@H]1C(=O)N(C)[C@@H](C(C)C)C(=O)OC[C@@H](NC(=O)c1cnc3ccccc3n1)C(=O)N[C@@H](C)C(=O)N2C (stereo in doubt) [echinomycin, N,N′-(2,4,12,15,17,25-hexamethyl-11,24-bis(1-methylethyl)-27-(methylthio)-3,6,10,13,16,19,23,26-octaoxo-9,22-dioxa-28-thia-2,5,12,15,18,25-hexaazabicyclo(12.12.3)nonacosane-7,20-diyl)bis(2-quinoxalinecarboxamide)]
[1]
  LD50: 0.629 mg/kg
[2]
  elimination of leukemia stem cells: effectively eliminated leukemia stem cells
[3]; E0771 tumors
  frequencies of tumor-infiltrated lymphocytes or myeloid subsets: did not significantly impact
[3]; compared to vehicle, echinomycin added to 9D9
  apoptotic (annexin V) CD8 TILs: appeared to repress this effect
[3]; compared to vehicle, echinomycin added to anti-CTLA-4
  PD-1 expression on CD8 TILs: reversed
[3]; [4]
  PD-L1 expression on CD11b+CD11c+ double-positive cells: significantly reduced PD-L1 expression
  PD-L1 expression on PMN-MDSCs: significantly reduced PD-L1 expression
  PD-L1 expression on tumor-infiltrated monocytic MDSCs (M-MDSC): significantly reduced PD-L1 expression
[3]; with or without anti-CTLA-4 therapy, LEM 0.25 mg/kg/dose
  PD-L1 expression on tumor cells: significantly reduced PD-L1 expression
